# ± gives the expanded uncertainty stated by the source.
# Assay: not given
# Details: 293.15 K; 101.3 kPa; Liquid; Vibrating tube method
row,mass density [kg/m3],Compound
1,873.4 ± 1.6,CC(=O)OCC(C)C [2-methylpropyl ethanoate]
2,789.2 ± 1.6,CCO [ethanol]
3,792.1 ± 1.6,CO [methanol]

# Assay: refractive index (Na D-line) (dimensionless)
# Details: 293.15 K; 101.33 kPa; Liquid; Standard Abbe refractometry
row,refractive index,Compound
1,1.3902 ± 0.0025,CC(=O)OCC(C)C [2-methylpropyl ethanoate]
2,1.3616 ± 0.0025,CCO [ethanol]
3,1.3285 ± 0.0025,CO [methanol]
